Experimental data published in PMC5739799 (Oncotarget, 2017).
Like-named read-outs stand apart in the source and are kept apart here.

Key:
HCC-PDX model 189 = assay: Patient-derived HCC xenograft model 189, tumor growth; format: in vivo, BALB/c nude mice
Method: (§1) The PDX studies were carried out by WuXi AppTec (Shanghai, China). HCC-PDX models were originally established from surgically resected tumor tissue that was implanted in 6–8-week-old female BALB/c nude mice. Animal studies were performed according to the guidelines approved by the Institutional Animal Care and Use Committee of Wuxi AppTec, which follow the guidance of the Association for the Assessment and Accreditation of Laboratory Animal Care. Animals were routinely monitored for their health status and their body weights. Treatment was suspended and/or doses reduced at body weight losses >10%. Animals were euthanized when the tumor size exceeded 2000 mm^3. Pieces from tumor xenografts (∼30 mm^3) from passages 4–8 (ST1) were implanted subcutaneously at the right flank, and tumors were grown to an average size of about 150–200 mm^3. […] Tumor size was measured twice weekly using caliper measurements. Tumor volume (mm^3) was calculated using the formula 0.5 a × b^2, where a and b are the long and short diameters of the tumor, respectively. TGI was assessed either by calculating the ratio of the mean tumor volumes of treated and control groups or by determination of the RTV, which relates tumor volumes at any given day of treatment to the volume at the first treatment day.
(§2) In the syngenic orthotopic H129 model, differences in survival times between groups were analyzed for significance using log-rank tests. Analysis of tumor volumes of the HCC-PDX models was performed with log2-transformed values on defined days of measurement based on the assumption of their log-normal distribution. […] All respective statistical test results were derived from a common linear model that allows for individual variances in the different groups. The adjustment for multiple testing was carried out using Šidák correction at a significance level of 0.05. Back transformation of the mean difference of log2-transformed tumor volumes led to the ratios of the compared groups, whereby ratios of 1 reflect no difference in tumor volumes and ratios below or above 1 reflect smaller or larger tumor volumes, respectively, of the respective second group. The analyses of RTV were carried out in a similar fashion without the log2 transformation of values. Bead-based western data were analyzed (described in [15]) using the MEV 4.8.1 software package. A p-value <0.05 was regarded as significant. All statistical analyses were performed with SAS® 9.4 [34].

HCC-PDX model 61 = assay: Patient-derived HCC xenograft model 61, tumor growth; format: in vivo, BALB/c nude mice
Method: as §1, §2

HCC-PDX model 101 = assay: Patient-derived HCC xenograft model 101, tumor growth; format: in vivo, BALB/c nude mice
Method: as §1, §2

HCC-PDX model 141 = assay: Patient-derived HCC xenograft model 141, tumor growth; format: in vivo, BALB/c nude mice
Method: as §1, §2

HCC-PDX model 159 = assay: Patient-derived HCC xenograft model 159, tumor growth; format: in vivo, BALB/c nude mice
Method: as §1, §2

[1] = Steady-state plasma pharmacokinetics after oral dosing for 5 days; format: in vivo, BALB/c nu/nu mice
Method: Pharmacokinetic studies were performed in 6–8-week-old female BALB/c nu/nu mice (Charles River, Sulzfeld, Germany). […] Parent compounds and metabolites M-2 and M-5 were analyzed in plasma samples using validated bioanalytical liquid chromatography-tandem mass spectrometry (LC-MS/MS) methods according to an experimental protocol described earlier. PK parameters, namely the AUC(0–24)ss and Cmax, were calculated from plasma concentrations using a non-compartmental analysis.

H129 hepatoma = assay: Syngenic orthotopic H129 hepatoma mouse model, survival; format: in vivo, C3H/HeN mice; settings: regorafenib 10 mg/kg/day oral, start 4–5 days after implantation, vehicle 27 days
Description: C3H/HeN mice aged 10–12 weeks with an average weight of 25 g were used for this model and were obtained from Charles River (Sulzfeld, Germany). Experiments were initiated after an acclimatizing period of at least 8 days. Syngenic murine H129 hepatoma cells (obtained from Dr. V. Schmitz, University of Bonn, Germany) were cultivated in RPMI medium, containing 10% fetal calf serum (FCS) and 5% glutamine. Cells were harvested in a subconfluent state (70–80%), prepared for injection of 5×10^4 cells/20 μL in growth factor-free Matrigel, and transplanted in the left upper liver lobe. Animals with surgical failures were marked and excluded from the experiment. Treatment was initiated 4–5 days after transplantation. One set of mice received regorafenib 10 mg/kg once daily, vehicle solution once daily, or no treatment (n=8 per treatment group). […] Treatments were given orally via gavage. The vehicle solution contained 10% Transcutol, 10% Cremophor, and 80% 0.9% NaCl. Animals were weighed twice a week and monitored daily for behavior and wound healing. […] Due to ascites formation in the peritoneum (a symptom of the disease), body weight was not used as part of the assessment. Animals were dissected to assess the cause of death unless they had died in their cage overnight.
(§3) In the syngenic orthotopic H129 model, differences in survival times between groups were analyzed for significance using log-rank tests. Analysis of tumor volumes of the HCC-PDX models was performed with log2-transformed values on defined days of measurement based on the assumption of their log-normal distribution. […] All respective statistical test results were derived from a common linear model that allows for individual variances in the different groups. The adjustment for multiple testing was carried out using Šidák correction at a significance level of 0.05. […] Bead-based western data were analyzed (described in [15]) using the MEV 4.8.1 software package. […]

HCC-PDX model 5 = assay: Patient-derived HCC xenograft model 5, tumor growth; format: in vivo, BALB/c nude mice
Method: as §1, §2

HCC-PDX model 10 = assay: Patient-derived HCC xenograft model 10, tumor growth; format: in vivo, BALB/c nude mice
Method: as §1, §2

[2] = system: 10 patient-derived HCC xenograft (HCC-PDX) models; assay: Panel of 10 HCC-PDX models, overall response and tolerability; format: in vivo, BALB/c nude mice; settings: 10 HCC-PDX models; regorafenib 10, sorafenib 30 mg/kg/day oral
Method: as §1, §3

HCC-PDX model 217 = assay: Patient-derived HCC xenograft model 217, tumor growth; format: in vivo, BALB/c nude mice
Method: as §1, §2

[3] = day 28, R 10 / S 30 mg/kg/day oral starting dose
[4] = plasma analyte after oral regorafenib 10 mg/kg/day for 5 days

CNC(=O)c1cc(Oc2ccc(NC(=O)Nc3ccc(Cl)c(C(F)(F)F)c3)c(F)c2)ccn1 [Regorafenib]
RTV Differences of least square-means, compound vs vehicle (HCC-PDX model 189; day 21): -31,656
RTV Differences of least square-means, regorafenib vs sorafenib (HCC-PDX model 189; day 21): -0.2628
log TV Ratio, compound vs vehicle (T/C) (HCC-PDX model 189; day 21): 0.42
log TV Ratio, regorafenib vs sorafenib (HCC-PDX model 189; day 21): 0.88
Mean TV (HCC-PDX model 189; day 21, R 10 / S 30 mg/kg/day oral starting dose): 322.88 mm^3
log TV Differences of least square-means, compound vs vehicle (HCC-PDX model 189; day 21, log2-transformed TV): -12,395
log TV Differences of least square-means, regorafenib vs sorafenib (HCC-PDX model 189; day 21, log2-transformed TV): -0.1791
RTV (HCC-PDX model 189; end of study, day 21): 2.39
RTV Differences of least square-means, regorafenib vs sorafenib (HCC-PDX model 61; RTV analysis day R 42, S 36): -19.5
log TV Ratio, compound vs vehicle (T/C) (HCC-PDX model 61; day 25): 0.26
log TV Ratio, regorafenib vs sorafenib (HCC-PDX model 61; day 25): 0.72
Mean TV (HCC-PDX model 61; day 25, R 10 / S 30 mg/kg/day oral): 331.96 mm^3
log TV Differences of least square-means, regorafenib vs sorafenib (HCC-PDX model 61; day 25, log2-transformed TV): -0.4771
RTV (HCC-PDX model 61; end of study (RTV analysis day R 42, S 36)): 5.43
log TV Ratio, compound vs vehicle (T/C) (HCC-PDX model 101; day 28): 0.19
log TV Ratio, regorafenib vs sorafenib (HCC-PDX model 101; day 28): 0.41
Mean TV (HCC-PDX model 101; [3]): 177.21 mm^3
RTV (HCC-PDX model 101; end of study, day 42): 2.06
log TV Ratio, compound vs vehicle (T/C) (HCC-PDX model 141; day 28): 0.10
log TV Ratio, regorafenib vs sorafenib (HCC-PDX model 141; day 28): 0.76
Mean TV (HCC-PDX model 141; [3]): 89.74 mm^3
log TV Differences of least square-means, regorafenib vs sorafenib (HCC-PDX model 141; day 28, log2-transformed TV): -0.3980
RTV (HCC-PDX model 141; end of study, day 42): 1.04
log TV Ratio, compound vs vehicle (T/C) (HCC-PDX model 159; day 28): 0.59
log TV Ratio, regorafenib vs sorafenib (HCC-PDX model 159; day 28): 0.78
Mean TV (HCC-PDX model 159; [3]): 864.43 mm^3
log TV Differences of least square-means, compound vs vehicle (HCC-PDX model 159; day 28, log2-transformed TV): -0.7546
log TV Differences of least square-means, regorafenib vs sorafenib (HCC-PDX model 159; day 28, log2-transformed TV): -0.3604
RTV Differences of least square-means, regorafenib vs sorafenib (HCC-PDX model 159; day 35): -0.6894
RTV (HCC-PDX model 159; end of study, day 35): 9.04
AUC(0–24)ss (percent of total) ([1]; after oral regorafenib 10 mg/kg/day for 5 days, total = molar sum of regorafenib, M-2, M-5): 90% of total
AUC(0-t) ([1]; female, BALB/c nu/nu, mouse, plasma analyte after oral regorafenib 10 mg/kg/day for 5 days, read-out: AUC(0–24)ss): 93100 ng·h/mL
Cmax ([1]; female, BALB/c nu/nu, mouse, plasma analyte after oral regorafenib 10 mg/kg/day for 5 days, read-out: Cmax): 10700 ng/mL
AUC(0–24)ss [1, 4]: 193 µM·h
Cmax [1, 4]: 22.2 µM
Cumulated maximum concentration (Cmax) ([1]; regorafenib 10 mg/kg once daily for 5 days, parent plus metabolites): 24.5 µM
Median survival, days (95% CI) (H129 hepatoma): 36 (31, 38) days
Median survival, days (95% CI) (H129 hepatoma; listed as regorafenib): 36 days
log TV Ratio, compound vs vehicle (T/C) (HCC-PDX model 5; day 28): 0.13
log TV Ratio, regorafenib vs sorafenib (HCC-PDX model 5; day 28): 0.73
Mean TV (HCC-PDX model 5; [3]): 80.96 mm^3
log TV Differences of least square-means, compound vs vehicle (HCC-PDX model 5; day 28, log2-transformed TV): -29,518
log TV Differences of least square-means, regorafenib vs sorafenib (HCC-PDX model 5; day 28, log2-transformed TV): -0.4634
RTV Differences of least square-means, compound vs vehicle (HCC-PDX model 5; day 46): -60,049
RTV Differences of least square-means, regorafenib vs sorafenib (HCC-PDX model 5; day 46): -0.6001
RTV (HCC-PDX model 5; end of study, day 46): 1.14
RTV Differences of least square-means, regorafenib vs sorafenib (HCC-PDX model 10; RTV analysis day R 40, S 30): -99,327
log TV Ratio, compound vs vehicle (T/C) (HCC-PDX model 10; day 12): 0.15
log TV Ratio, regorafenib vs sorafenib (HCC-PDX model 10; day 12): 0.53
Mean TV (HCC-PDX model 10; day 12, R 10 / S 30 mg/kg/day oral): 332.11 mm^3
log TV Differences of least square-means, compound vs vehicle (HCC-PDX model 10; day 12, log2-transformed TV): -27,077
log TV Differences of least square-means, regorafenib vs sorafenib (HCC-PDX model 10; day 12, log2-transformed TV): -0.9111
RTV (HCC-PDX model 10; end of study (RTV analysis day R 40, S 30)): 9.15
Models with significant tumor growth inhibition [2]: 8/10
RTV Differences of least square-means, regorafenib vs sorafenib (HCC-PDX model 217; RTV analysis day R 24, S 20): -14,902
log TV Ratio, compound vs vehicle (T/C) (HCC-PDX model 217; day 13): 0.45
log TV Ratio, regorafenib vs sorafenib (HCC-PDX model 217; day 13): 0.92
Mean TV (HCC-PDX model 217; day 13, R 10 / S 30 mg/kg/day oral): 932.43 mm^3
log TV Differences of least square-means, compound vs vehicle (HCC-PDX model 217; day 13, log2-transformed TV): -11,395
log TV Differences of least square-means, regorafenib vs sorafenib (HCC-PDX model 217; day 13, log2-transformed TV): -0.1276
RTV (HCC-PDX model 217; end of study (RTV analysis day R 24, S 20)): 12.77
